Earlier results as cited in patent US20100035939A1, “PENETRATING CARRIER, ANTI-FUNGAL COMPOSITION USING THE SAME AND METHOD FOR TREATMENT OF DERMATOPHYTES” (priority 2004, published 2010).

Test system: fungal toenail

patients with a serious reaction to the drug (in vivo, po): One in 500
SMILES: CN(C/C=C/C#CC(C)(C)C)Cc1cccc2ccccc12 [terbinafine]
reoccurrence of the fungal toenail (oral administration, in the first year): 15%
